Data set [1] deals with T1, purified milk xanthine oxidase (Bos taurus, UniProt P80457).
T1 construct: purchased Worthington Biochemical Corporation
The data set is described as follows: Xanthine oxidase inhibition, spectrophotometric at 290 nm. The class given is biochemical. As to conditions: for relative activity (α) compared to allopurinol: ratio to allopurinol (allopurinol = 1); for IC50: xanthine substrate 0.013 micromoles in 3.0 ml, tris HCl buffer pH 7.50, 25° C, unit taken, none in table. The procedure: In this example, the inhibitory activity of the compounds of the invention was determined by recording spectral changes at a constant wavelength of 290 nm, using a Cary Model 15 recording spectrophotometer equipped with a 0-0.1 O.D. slidewire. […] After dissolving in DMSO, the compounds were introduced into the incubation mixture containing 150 micromoles of tris HCl buffer (pH 7.50), 0.6 micromoles EDTA, 0.013 micromoles xanthine, and 20 to 40 micrograms of xanthine oxidase in a final volume of 3.0 milliliters. […] The assay was carried out by mixing all the components in a cuvette at 25° C. The reaction was started by the addition of the enzyme with the aid of a stirrer-adder. Changes in O.D. were measured for several minutes, and the rate (O.D. per minute) was calculated from the spectral change over the first 15 seconds.

Data set [2] deals with xanthine oxidase. As to conditions: metabolite of allopurinol; cited from earlier work.
For data set [3] the following is noted: dose killing 50% of a group of animals in two weeks, injected into the intraparietal cavity; 20160 min; cited from earlier work.
The conditions of data set [4]: cited from earlier work.

For orientation: IC50 means the concentration at which inhibition is half-maximal. A higher IC50 goes with lower potency.

T1 sequence (P80457 whole entry): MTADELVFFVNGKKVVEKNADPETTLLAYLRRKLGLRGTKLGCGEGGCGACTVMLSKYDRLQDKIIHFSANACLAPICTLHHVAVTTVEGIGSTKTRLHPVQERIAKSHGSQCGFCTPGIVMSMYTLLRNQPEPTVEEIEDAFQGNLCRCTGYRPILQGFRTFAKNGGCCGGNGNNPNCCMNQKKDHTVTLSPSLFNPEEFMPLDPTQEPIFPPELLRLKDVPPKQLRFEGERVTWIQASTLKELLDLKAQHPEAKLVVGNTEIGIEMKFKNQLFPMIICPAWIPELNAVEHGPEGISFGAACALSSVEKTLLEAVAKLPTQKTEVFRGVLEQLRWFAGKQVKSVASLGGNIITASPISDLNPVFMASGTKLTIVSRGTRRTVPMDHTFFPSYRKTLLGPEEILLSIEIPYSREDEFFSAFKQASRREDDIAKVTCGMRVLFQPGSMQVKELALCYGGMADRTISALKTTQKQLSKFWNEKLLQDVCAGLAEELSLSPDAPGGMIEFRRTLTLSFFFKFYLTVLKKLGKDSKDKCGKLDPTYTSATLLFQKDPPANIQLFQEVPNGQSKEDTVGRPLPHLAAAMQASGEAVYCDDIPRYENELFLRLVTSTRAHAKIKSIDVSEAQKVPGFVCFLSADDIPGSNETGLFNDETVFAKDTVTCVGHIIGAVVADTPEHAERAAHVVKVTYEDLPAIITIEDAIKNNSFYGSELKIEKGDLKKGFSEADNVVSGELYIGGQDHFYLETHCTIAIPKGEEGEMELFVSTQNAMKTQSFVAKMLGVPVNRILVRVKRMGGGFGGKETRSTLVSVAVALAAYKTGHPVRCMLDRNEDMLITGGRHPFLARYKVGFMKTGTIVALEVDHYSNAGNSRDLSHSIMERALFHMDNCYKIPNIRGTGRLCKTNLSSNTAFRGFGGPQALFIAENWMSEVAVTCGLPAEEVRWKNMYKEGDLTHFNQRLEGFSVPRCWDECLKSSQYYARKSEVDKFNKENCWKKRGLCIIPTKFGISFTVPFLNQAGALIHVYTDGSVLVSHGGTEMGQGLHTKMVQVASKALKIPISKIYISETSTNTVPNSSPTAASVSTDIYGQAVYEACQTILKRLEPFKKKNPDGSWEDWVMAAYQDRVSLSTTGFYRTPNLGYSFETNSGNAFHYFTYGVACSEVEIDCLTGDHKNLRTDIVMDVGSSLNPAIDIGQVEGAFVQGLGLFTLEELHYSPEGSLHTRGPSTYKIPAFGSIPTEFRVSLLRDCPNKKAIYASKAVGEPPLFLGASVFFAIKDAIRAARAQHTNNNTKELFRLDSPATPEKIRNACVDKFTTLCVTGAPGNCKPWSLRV

On to “3-(1'-naphthyl)pyrazolo[1,5,a]pyrimidine-5,7-diol [Compound (9)]”, for which the “relative activity (α) compared to allopurinol” value (from here on “relative activity (α)”) in data set [1] was found to be 20.
The same measure, in the same setting: the same measure for “3-(3'-pyridyl)pyrazolo[1,5,a]pyrimidine-5,7-diol [(8)]”: 116; for “3-(m-tolyl)pyrazolo[1,5,a]pyrimidine-5,7-diol [(2)]”: 116; for “3-(p-acetamidophenyl)pyrazolo[1,5,a]pyrimidine-5,7-diol [(6)]”: 200.
For the compound “3-(p-bromophenyl)pyrazolo[1,5,a]pyramidine-5,7-diol [Compound (4)]”, the “relative activity (α)” value in data set [1] is 56.
Consider “3-(p-chlorophenyl)pyrazolo[1,5,a]pyrimidine-5,7-diol [(5)]”, for which the “relative activity (α)” value in data set [1] is listed as 131.
On the same count and under the same terms, the same measure for “3-(p-tolyl)pyrazolo[1,5,a]pyrimidine-5,7-diol [(3)]”: 151; for “3-phenyl pyrazolo[1,5,a]pyrimidine-5,7-diol [Compound (1)]”: 52.
With “3-piperonylpyrazolo[1,5,a]pyrimidine-5,7-diol [(7)]”, in data set [1], the “relative activity (α)” value was found to be 172.
For the compound `Oc1nc(O)c2cn[nH]c2n1` [4,6-dihydroxy pyrazolo[3,4-d]pyrimidine], the “inhibitor effectiveness compared with allopurinol” value in data set [2] is given as “not as effective an inhibitor as is allopurinol”.
For the compound `Oc1ncnc2[nH]ncc12` [Allopurinol, allopurinol], the LD50 entry in data set [3] is “about 150 milligrams per kilogram of body weight”. The metabolism in vivo result in data set [4] was “gradually metabolized in vivo to 4,6-dihydroxy pyrazolo[3,4-d]pyrimidine”.
Take `Cc1cccc(-c2cnn3c(O)ccnc23)c1` [Compound (10), 3-(m-tolyl)pyrazolo[1,5a]pyrimidin-7-ol]: in data set [1], the “relative activity (α)” value was 50 and the IC50 stood at 100 nM.
Take `Oc1ccnc2c(-c3ccccc3)cnn12` [Compound (11), 3-phenylpyrazolo[1,5a]pyrimidine-7-ol]: in data set [1], the “relative activity (α)” value is listed as 33 and the concentration for half-maximal inhibition (IC50) was found to be 150 nM.
